Literature values, collected in patent US20180177735A1, “Stable Pharmaceutical Composition Of Phytonadione And A Novel Process For Preparation Thereof” (Amneal Pharmaceuticals Company GmbH, priority 2016, published 2018).
Like-named read-outs stand apart in the source and are kept apart here.

solubility (in chloroform): soluble
solubility (in water): insoluble
SMILES: CC1=C(C/C=C(\C)CCC[C@H](C)CCC[C@H](C)CCCC(C)C)C(=O)c2ccccc2C1=O [Phytonadione]
solubility (in ethanol): slightly soluble (1 g of material requires 100 to 1000 ml of solute to dissolve)
